# Measured values as given in ChEMBL document CHEMBL4002647, “BMS-933043, a Selective α7 nAChR Partial Agonist for the Treatment of Cognitive Deficits Associated with Schizophrenia” (ACS Med Chem Lett, 2017).
# The source made the active and inactive calls. The calls are words filed in the database; no cut-off is given here.
# Columns and labels:
# [1] = biological target: T1, Neuronal acetylcholine receptor subunit alpha-7 (Rattus norvegicus, UniProt Q05941); assay: Agonist activity at rat alpha7 nAChR expressed in HEK293 cells assessed as increase in Ca2+ flux by Fluo-4 AM dye based FLIPR assay; assay type: cell-based
# T1 sequence (Q05941 whole entry): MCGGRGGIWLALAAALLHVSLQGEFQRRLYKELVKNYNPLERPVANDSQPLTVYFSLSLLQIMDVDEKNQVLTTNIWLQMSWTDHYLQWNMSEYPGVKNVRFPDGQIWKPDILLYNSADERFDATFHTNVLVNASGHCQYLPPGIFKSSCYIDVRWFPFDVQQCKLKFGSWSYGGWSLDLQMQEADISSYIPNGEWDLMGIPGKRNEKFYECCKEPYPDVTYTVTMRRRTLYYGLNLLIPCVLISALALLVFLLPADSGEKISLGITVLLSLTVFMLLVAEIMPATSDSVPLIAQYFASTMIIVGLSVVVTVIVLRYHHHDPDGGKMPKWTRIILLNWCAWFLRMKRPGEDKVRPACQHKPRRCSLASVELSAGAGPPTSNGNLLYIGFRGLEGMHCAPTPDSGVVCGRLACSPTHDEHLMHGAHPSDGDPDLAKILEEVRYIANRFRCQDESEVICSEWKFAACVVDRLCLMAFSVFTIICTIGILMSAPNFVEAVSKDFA
# [2] = biological target: T1, Neuronal acetylcholine receptor subunit alpha-7; assay: Agonist activity at rat alpha7 nAChR expressed in HEK293 cells co-expressing human RIC3 assessed as area under current curve at holding potential of -90 mV by whole-cell voltage clamp electrophysiology method; assay type: cell-based
# [3] = biological target: T2, Neuronal acetylcholine receptor subunit alpha-7 (Homo sapiens, UniProt P36544); assay: Agonist activity at human alpha7 nAChR expressed in HEK293 cells co-expressing human RIC3 assessed as induction of peak current amplitutde at 10 uM at holding potential of -90 mV by whole-cell voltage clamp electrophysiology method relative to acetylcholine; assay type: cell-based
# T2 sequence (P36544 whole entry): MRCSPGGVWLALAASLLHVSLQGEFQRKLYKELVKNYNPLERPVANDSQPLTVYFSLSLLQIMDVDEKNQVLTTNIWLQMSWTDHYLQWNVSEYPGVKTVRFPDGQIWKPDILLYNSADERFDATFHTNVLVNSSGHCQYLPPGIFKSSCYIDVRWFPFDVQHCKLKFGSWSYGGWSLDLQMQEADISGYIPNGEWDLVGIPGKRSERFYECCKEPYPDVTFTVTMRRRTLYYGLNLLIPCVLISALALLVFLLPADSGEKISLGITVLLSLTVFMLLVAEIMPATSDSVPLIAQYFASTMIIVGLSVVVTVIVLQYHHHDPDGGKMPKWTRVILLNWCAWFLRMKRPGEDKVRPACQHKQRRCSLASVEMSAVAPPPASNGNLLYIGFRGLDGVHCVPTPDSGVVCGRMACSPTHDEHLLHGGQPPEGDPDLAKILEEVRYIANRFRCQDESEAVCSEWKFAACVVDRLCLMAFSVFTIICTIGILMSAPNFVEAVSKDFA
# [4] = biological target: T2, Neuronal acetylcholine receptor subunit alpha-7; assay: Agonist activity at human alpha7 nAChR expressed in HEK293 cells co-expressing human RIC3 assessed as area under current curve at 10 uM at holding potential of -90 mV by whole-cell voltage clamp electrophysiology method relative to acetylcholine; assay type: cell-based
# [5] = biological target: T2, Neuronal acetylcholine receptor subunit alpha-7; assay: Agonist activity at human alpha7 nAChR expressed in HEK293 cells co-expressing human RIC3 assessed as area under current curve at holding potential of -90 mV by whole-cell voltage clamp electrophysiology method; assay type: cell-based
# [6] = biological target: Nicotinic acetylcholine receptor alpha-1/beta-1/delta/epsilon (Rattus norvegicus, UniProt P09660+P25108+P25109+P25110); assay: Agonist activity at rat alpha1beta1delta1epsilon nAChR expressed in HEK293 cells assessed as increase in Ca2+ flux by Fluo-4 AM dye based FLIPR assay; assay type: cell-based
# [7] = biological target: Neuronal acetylcholine receptor; alpha3/beta4 (Rattus norvegicus, UniProt P04757+P12392); assay: Agonist activity at rat alpha3beta4 nAChR expressed in HEK293 cells assessed as increase in Ca2+ flux by Fluo-4 AM dye based FLIPR assay; assay type: cell-based
# [8] = biological target: Neuronal acetylcholine receptor; alpha4/beta2 (Rattus norvegicus, UniProt P09483+P12390); assay: Agonist activity at rat alpha4beta2 nAChR expressed in HEK293 cells assessed as increase in Ca2+ flux by Fluo-4 AM dye based FLIPR assay; assay type: cell-based
# Neuronal acetylcholine receptor; alpha4/beta2, sequence (P09483 whole entry): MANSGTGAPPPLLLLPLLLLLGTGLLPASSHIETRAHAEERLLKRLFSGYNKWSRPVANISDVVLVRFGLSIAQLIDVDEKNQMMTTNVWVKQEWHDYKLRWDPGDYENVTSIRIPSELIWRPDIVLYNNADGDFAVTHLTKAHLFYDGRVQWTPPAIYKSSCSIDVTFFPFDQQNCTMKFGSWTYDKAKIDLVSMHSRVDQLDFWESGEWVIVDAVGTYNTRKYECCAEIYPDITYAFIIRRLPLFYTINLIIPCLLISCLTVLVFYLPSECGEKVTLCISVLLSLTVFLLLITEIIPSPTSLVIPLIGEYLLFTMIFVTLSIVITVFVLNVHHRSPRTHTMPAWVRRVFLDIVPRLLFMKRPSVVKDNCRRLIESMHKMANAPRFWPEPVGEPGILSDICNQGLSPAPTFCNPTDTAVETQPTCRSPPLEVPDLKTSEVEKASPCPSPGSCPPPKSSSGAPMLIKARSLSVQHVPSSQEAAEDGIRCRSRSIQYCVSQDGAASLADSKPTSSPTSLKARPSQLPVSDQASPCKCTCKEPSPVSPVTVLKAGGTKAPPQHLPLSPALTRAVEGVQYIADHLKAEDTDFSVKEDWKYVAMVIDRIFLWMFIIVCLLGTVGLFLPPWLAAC
# Neuronal acetylcholine receptor; alpha4/beta2, sequence (P12390 whole entry): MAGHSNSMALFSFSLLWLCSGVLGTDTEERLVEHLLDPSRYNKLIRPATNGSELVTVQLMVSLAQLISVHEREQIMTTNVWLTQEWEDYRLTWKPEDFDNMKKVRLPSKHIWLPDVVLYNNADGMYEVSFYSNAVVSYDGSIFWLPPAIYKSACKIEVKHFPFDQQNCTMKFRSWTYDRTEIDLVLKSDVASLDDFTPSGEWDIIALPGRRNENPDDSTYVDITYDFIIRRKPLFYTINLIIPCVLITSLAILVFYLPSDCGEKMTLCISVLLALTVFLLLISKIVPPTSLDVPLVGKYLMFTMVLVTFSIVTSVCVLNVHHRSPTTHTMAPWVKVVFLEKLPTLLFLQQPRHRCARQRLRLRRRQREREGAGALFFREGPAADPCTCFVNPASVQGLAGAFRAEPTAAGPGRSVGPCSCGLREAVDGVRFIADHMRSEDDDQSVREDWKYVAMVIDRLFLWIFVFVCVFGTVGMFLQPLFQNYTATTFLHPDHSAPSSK
# [9] = biological target: Muscarinic acetylcholine receptor M1 (Homo sapiens) (UniProt P11229); assay: Activity at human muscarinic M1 receptor
# Muscarinic acetylcholine receptor M1 (Homo sapiens), sequence (P11229 whole entry): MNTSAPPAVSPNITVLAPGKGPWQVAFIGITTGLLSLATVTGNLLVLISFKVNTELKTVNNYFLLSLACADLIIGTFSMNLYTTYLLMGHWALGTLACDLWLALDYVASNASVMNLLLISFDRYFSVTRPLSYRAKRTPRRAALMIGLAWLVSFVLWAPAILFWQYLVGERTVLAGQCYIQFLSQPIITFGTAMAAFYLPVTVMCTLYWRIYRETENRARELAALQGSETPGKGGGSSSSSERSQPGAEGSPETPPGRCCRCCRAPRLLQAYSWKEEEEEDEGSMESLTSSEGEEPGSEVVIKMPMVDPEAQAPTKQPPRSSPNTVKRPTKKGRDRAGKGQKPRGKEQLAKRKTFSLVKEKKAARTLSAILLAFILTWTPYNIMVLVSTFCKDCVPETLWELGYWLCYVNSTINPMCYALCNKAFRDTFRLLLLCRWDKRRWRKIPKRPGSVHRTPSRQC
# [10] = biological target: Muscarinic acetylcholine receptor M3 (Homo sapiens) (UniProt P20309); assay: Activity at human muscarinic M3 receptor
# [11] = biological target: Muscarinic acetylcholine receptor M4 (Homo sapiens) (UniProt P08173); assay: Activity at human muscarinic M4 receptor
# Muscarinic acetylcholine receptor M4 (Homo sapiens), sequence (P08173 whole entry): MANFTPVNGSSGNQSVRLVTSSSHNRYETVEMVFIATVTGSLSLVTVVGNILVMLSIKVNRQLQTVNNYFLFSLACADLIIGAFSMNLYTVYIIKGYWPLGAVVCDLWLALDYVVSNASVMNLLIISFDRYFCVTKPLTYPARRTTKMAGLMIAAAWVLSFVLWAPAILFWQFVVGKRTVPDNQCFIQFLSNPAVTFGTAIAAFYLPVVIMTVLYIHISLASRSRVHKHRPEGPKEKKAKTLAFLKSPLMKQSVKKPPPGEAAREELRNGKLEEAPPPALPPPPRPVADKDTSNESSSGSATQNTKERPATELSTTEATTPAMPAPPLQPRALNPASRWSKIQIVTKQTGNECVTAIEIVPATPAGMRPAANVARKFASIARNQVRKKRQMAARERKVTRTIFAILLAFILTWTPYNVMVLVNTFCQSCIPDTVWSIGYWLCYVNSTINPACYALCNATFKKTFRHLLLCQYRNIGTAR
# [12] = biological target: Muscarinic acetylcholine receptor M5 (Homo sapiens) (UniProt P08912); assay: Activity at human muscarinic M5 receptor
# Muscarinic acetylcholine receptor M5 (Homo sapiens), sequence (P08912 whole entry): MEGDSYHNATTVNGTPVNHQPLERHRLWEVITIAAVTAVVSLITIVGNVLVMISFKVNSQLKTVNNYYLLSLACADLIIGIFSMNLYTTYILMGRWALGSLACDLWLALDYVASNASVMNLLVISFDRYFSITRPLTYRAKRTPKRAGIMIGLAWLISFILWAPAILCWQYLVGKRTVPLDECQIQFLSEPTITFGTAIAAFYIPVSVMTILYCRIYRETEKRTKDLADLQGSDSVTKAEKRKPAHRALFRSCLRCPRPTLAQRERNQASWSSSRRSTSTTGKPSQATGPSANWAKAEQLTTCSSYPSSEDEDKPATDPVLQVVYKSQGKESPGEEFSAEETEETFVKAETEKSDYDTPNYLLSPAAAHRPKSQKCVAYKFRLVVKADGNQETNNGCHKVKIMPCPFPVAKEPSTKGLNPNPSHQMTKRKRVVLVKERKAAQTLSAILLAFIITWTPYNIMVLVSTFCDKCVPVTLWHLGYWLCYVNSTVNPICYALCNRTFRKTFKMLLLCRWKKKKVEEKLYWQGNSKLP
# [13] = Metabolic stability in human liver microsomes assessed as compound remaining at 3 uM after 10 mins by LC-MS/MS analysis; assay type: ADME, microsome; conditions: read-out: Stability
# [14] = Metabolic stability in rat liver microsomes assessed as compound remaining at 3 uM after 10 mins by LC-MS/MS analysis; assay type: ADME, microsome; conditions: read-out: Stability
# [15] = Metabolic stability in dog liver microsomes assessed as compound remaining at 3 uM after 10 mins by LC-MS/MS analysis; assay type: ADME, Canis lupus familiaris, microsome; conditions: read-out: Stability
# [16] = Metabolic stability in monkey liver microsomes assessed as compound remaining at 3 uM after 10 mins by LC-MS/MS analysis; assay type: ADME, Macaca mulatta, microsome; conditions: rhesus monkey, read-out: Stability
# Cytochrome P450 3A4 [17] = biological target: T3, Cytochrome P450 3A4 (Homo sapiens, UniProt P08684); assay: Inhibition of recombinant human CYP3A4 using fluorogenic substrate BFC preincubated for 30 mins and measured after 20 to 60 mins in presence of NADPH regenerating system by fluorescence assay; assay type: ADME
# T3 sequence (P08684 whole entry): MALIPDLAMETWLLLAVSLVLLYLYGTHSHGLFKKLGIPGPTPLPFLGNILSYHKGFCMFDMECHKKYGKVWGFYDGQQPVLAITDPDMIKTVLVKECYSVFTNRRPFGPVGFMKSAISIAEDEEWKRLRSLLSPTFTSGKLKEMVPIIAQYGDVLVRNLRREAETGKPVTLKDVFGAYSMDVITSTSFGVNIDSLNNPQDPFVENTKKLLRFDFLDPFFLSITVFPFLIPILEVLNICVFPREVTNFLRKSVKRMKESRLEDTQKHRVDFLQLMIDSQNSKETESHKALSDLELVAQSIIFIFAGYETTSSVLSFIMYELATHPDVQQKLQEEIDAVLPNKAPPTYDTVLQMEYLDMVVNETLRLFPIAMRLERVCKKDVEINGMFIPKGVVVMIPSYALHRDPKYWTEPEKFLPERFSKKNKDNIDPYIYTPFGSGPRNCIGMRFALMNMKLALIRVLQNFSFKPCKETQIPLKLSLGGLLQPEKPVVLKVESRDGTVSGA
# Cytochrome P450 3A4 [18] = biological target: T3, Cytochrome P450 3A4; assay: Inhibition of recombinant human CYP3A4 using fluorogenic substrate BZR preincubated for 30 mins and measured after 20 to 60 mins in presence of NADPH regenerating system by fluorescence assay; assay type: ADME
# Cytochrome P450 2B6 = Cytochrome P450 2B6 (Homo sapiens, UniProt P20813); assay: Inhibition of recombinant human CYP2B6 using fluorogenic substrate preincubated for 30 mins and measured after 20 to 60 mins in presence of NADPH regenerating system by fluorescence assay; assay type: ADME
# Cytochrome P450 2B6, sequence (P20813 whole entry): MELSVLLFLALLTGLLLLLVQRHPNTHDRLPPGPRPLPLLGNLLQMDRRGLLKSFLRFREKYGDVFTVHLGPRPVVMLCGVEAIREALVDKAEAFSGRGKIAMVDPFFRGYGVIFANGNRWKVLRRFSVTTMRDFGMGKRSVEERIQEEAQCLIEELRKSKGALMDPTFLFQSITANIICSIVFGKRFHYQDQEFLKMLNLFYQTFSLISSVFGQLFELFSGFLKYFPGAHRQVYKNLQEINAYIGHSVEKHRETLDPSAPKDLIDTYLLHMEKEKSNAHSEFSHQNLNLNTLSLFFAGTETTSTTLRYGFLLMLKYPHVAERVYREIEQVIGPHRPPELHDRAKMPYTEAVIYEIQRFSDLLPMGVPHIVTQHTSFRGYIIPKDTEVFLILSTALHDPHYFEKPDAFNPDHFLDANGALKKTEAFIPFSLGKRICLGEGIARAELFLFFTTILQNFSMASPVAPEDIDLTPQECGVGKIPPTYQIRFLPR
# Cytochrome P450 2C8 = Cytochrome P450 2C8 (Homo sapiens, UniProt P10632); assay: Inhibition of recombinant human CYP2C8 using fluorogenic substrate preincubated for 30 mins and measured after 20 to 60 mins in presence of NADPH regenerating system by fluorescence assay; assay type: ADME
# Cytochrome P450 2D6 = Cytochrome P450 2D6 (Homo sapiens, UniProt P10635); assay: Inhibition of recombinant human CYP2D6 using fluorogenic substrate preincubated for 30 mins and measured after 20 to 60 mins in presence of NADPH regenerating system by fluorescence assay; assay type: ADME
# [19] = Fraction unbound in human plasma at 10 uM after 4 hrs by equilibrium dialysis method; assay type: ADME, cell-free
# [20] = Fraction unbound in rat plasma at 10 uM after 4 hrs by equilibrium dialysis method; assay type: ADME, cell-free
# [21] = Fraction unbound in mouse plasma at 10 uM after 4 hrs by equilibrium dialysis method; assay type: ADME, cell-free
# [22] = Fraction unbound in dog plasma at 10 uM after 4 hrs by equilibrium dialysis method; assay type: ADME, cell-free, Canis lupus familiaris
# [23] = Fraction unbound in monkey plasma at 10 uM after 4 hrs by equilibrium dialysis method; assay type: ADME, cell-free, Macaca mulatta; conditions: rhesus monkey
# Mus musculus [24] = assay: Cognitive enhancing effect in C57Bl/6 mouse assessed as time spent on exploring novel objects at 0.1 to 10 mg/kg, sc administered 30 mins prior to test and measured after 24 hrs by novel object recognition test; assay type: functional, organism-based
# [25] = Fraction unbound in C57Bl/6 mouse plasma at 0.1 mg/kg, sc after 30 mins; assay type: ADME, organism-based
# [26] = Drug level in C57Bl/6 mouse plasma at 0.1 mg/kg, sc after 30 mins; assay type: ADME, organism-based
# [27] = Volume of distribution at steady state in mouse at 1 mg/kg, iv administered as 5 mins infusion; assay type: ADME, organism-based; conditions: in vivo, read-out: Vdss
# [28] = Total plasma clearance in mouse at 1 mg/kg, iv administered as 5 mins infusion; assay type: ADME, organism-based
# [29] = Half life in mouse at 1 mg/kg, iv administered as 5 mins infusion; assay type: ADME, organism-based; conditions: in vivo
# [30] = AUC in mouse at 1 mg/kg, iv administered as 5 mins infusion; assay type: ADME, organism-based; conditions: in vivo
# [31] = Ratio of drug level in mouse brain to plasma at 1 mg/kg, iv administered as 5 mins infusion after 30 mins; assay type: ADME, organism-based; conditions: brain and plasma, read-out: BPR
# [32] = Volume of distribution at steady state in rat at 1 mg/kg, iv administered as 5 mins infusion; assay type: ADME, organism-based; conditions: in vivo, read-out: Vdss
# [33] = Cmax in mouse at 10 mg/kg, po; assay type: ADME, organism-based; set-up: dose 10 mg/kg, route oral; conditions: in vivo
# [34] = AUC in mouse at 10 mg/kg, po; assay type: ADME, organism-based; conditions: in vivo
# [35] = Oral bioavailability in mouse at 10 mg/kg; assay type: ADME, organism-based; conditions: in vivo
# [36] = Total plasma clearance in rat at 1 mg/kg, iv administered as 5 mins infusion; assay type: ADME, organism-based
# [37] = Half life in rat at 1 mg/kg, iv administered as 5 mins infusion; assay type: ADME, organism-based; conditions: in vivo
# [38] = AUC in rat at 1 mg/kg, iv administered as 5 mins infusion; assay type: ADME, organism-based; conditions: in vivo
# [39] = Cmax in rat at 10 mg/kg, po; assay type: ADME, organism-based; set-up: dose 10 mg/kg, route oral; conditions: in vivo
# [40] = AUC in rat at 10 mg/kg, po; assay type: ADME, organism-based; conditions: in vivo
# [41] = Oral bioavailability in rat at 10 mg/kg; assay type: ADME, organism-based; conditions: in vivo
# [42] = Volume of distribution at steady state in dog at 1 mg/kg, iv administered as 5 mins infusion; assay type: ADME, organism-based, Canis lupus familiaris; conditions: in vivo, read-out: Vdss
# [43] = Total plasma clearance in dog at 1 mg/kg, iv administered as 5 mins infusion; assay type: ADME, organism-based, Canis lupus familiaris
# [44] = Half life in dog at 1 mg/kg, iv administered as 5 mins infusion; assay type: ADME, organism-based, Canis lupus familiaris; conditions: in vivo
# [45] = AUC in dog at 1 mg/kg, iv administered as 5 mins infusion; assay type: ADME, organism-based, Canis lupus familiaris; conditions: in vivo
# [46] = Cmax in dog at 5 mg/kg, po; assay type: ADME, organism-based, Canis lupus familiaris; set-up: dose 5 mg/kg, route oral; conditions: in vivo
# [47] = AUC in dog at 5 mg/kg, po; assay type: ADME, organism-based, Canis lupus familiaris; conditions: in vivo
# [48] = Oral bioavailability in dog at 5 mg/kg; assay type: ADME, organism-based, Canis lupus familiaris; conditions: in vivo
# [49] = Volume of distribution at steady state in cynomolgus monkey at 1 mg/kg, iv administered as 5 mins infusion; assay type: ADME, organism-based, Macaca fascicularis; conditions: in vivo, read-out: Vdss
# [50] = Total plasma clearance in cynomolgus monkey at 1 mg/kg, iv administered as 5 mins infusion; assay type: ADME, organism-based, Macaca fascicularis
# [51] = Half life in cynomolgus monkey at 1 mg/kg, iv administered as 5 mins infusion; assay type: ADME, organism-based, Macaca fascicularis; conditions: in vivo
# [52] = AUC in cynomolgus monkey at 1 mg/kg, iv administered as 5 mins infusion; assay type: ADME, organism-based, Macaca fascicularis; conditions: in vivo
# [53] = Cmax in cynomolgus monkey at 5 mg/kg, po; assay type: ADME, organism-based, Macaca fascicularis; set-up: dose 5 mg/kg, route oral; conditions: in vivo
# [54] = AUC in cynomolgus monkey at 5 mg/kg, po; assay type: ADME, organism-based, Macaca fascicularis; conditions: in vivo
# [55] = Oral bioavailability in cynomolgus monkey at 5 mg/kg; assay type: ADME, organism-based, Macaca fascicularis; conditions: in vivo
# Mus musculus [56] = assay: Cognitive enhancing effect in C57Bl/6 mouse assessed as time spent on exploring novel objects administered subcutaneously 30 mins prior to test and measured after 24 hrs by novel object recognition test; assay type: functional; conditions: C57Bl/6, sc, read-out: MED
# [57] = Metabolic stability in mouse liver microsomes assessed as compound remaining at 3 uM after 10 mins by LC-MS/MS analysis; assay type: ADME, microsome; conditions: read-out: Stability
smiles,measurement,setting,value
c1cn(-c2cc(NC3=NC[C@@]4(CN5CCC4CC5)O3)ncn2)cn1,EC50,[1],0.023 µM
same,EC50,[2],0.1 µM
same,%max,[3],24%
same,%max,[4],78%
same,EC50,[5],0.3 µM
same,EC50,[6],> 100 µM
same,EC50,[7],> 100 µM
same,EC50,[8],> 100 µM
same,Activity,[9],inactive
same,Activity,[10],inactive
same,Activity,[11],inactive
same,Activity,[12],inactive
same,"remaining at 10 min, 3 µM",[13],91%
same,"remaining at 10 min, 3 µM",[14],95%
same,"remaining at 10 min, 3 µM",[15],98%
same,"remaining at 10 min, 3 µM",[16],100%
same,IC50,Cytochrome P450 3A4 [17],> 30 µM
same,IC50,Cytochrome P450 3A4 [18],> 30 µM
same,IC50,Cytochrome P450 2B6,> 30 µM
same,IC50,Cytochrome P450 2C8,> 30 µM
same,IC50,Cytochrome P450 2D6,> 30 µM
same,"fraction unbound at 4 h, 10 µM",[19],0.87
same,"fraction unbound at 4 h, 10 µM",[20],0.87
same,"fraction unbound at 4 h, 10 µM",[21],0.84
same,"fraction unbound at 4 h, 10 µM",[22],0.93
same,"fraction unbound at 4 h, 10 µM",[23],0.87
same,Activity,Mus musculus [24],Active
same,fraction unbound at 0.5 h,[25],0.84
same,concentration at 0.5 h,[26],52 nM
same,Vd,[27],7 L/kg
same,clearance,[28],96 mL/min/kg
same,half-life,[29],1.1 h
same,AUC at 5 min,[30],0.53 µM·h
same,Kp at 0.5 h,[31],0.21
same,Vd,[32],2.9 L/kg
same,Cmax,[33],550 nM
same,AUC,[34],3.2 µM·h
same,bioavailability,[35],45%
same,clearance,[36],70 mL/min/kg
same,half-life,[37],0.7 h
same,AUC at 5 min,[38],0.75 µM·h
same,Cmax,[39],1600 nM
same,AUC,[40],7.2 µM·h
same,bioavailability,[41],97%
same,Vd,[42],5.5 L/kg
same,clearance,[43],15 mL/min/kg
same,half-life,[44],5.5 h
same,AUC at 5 min,[45],3.4 µM·h
same,Cmax,[46],3200 nM
same,AUC,[47],19 µM·h
same,bioavailability,[48],100%
same,Vd,[49],5.7 L/kg
same,clearance,[50],17 mL/min/kg
same,half-life,[51],4.4 h
same,AUC at 5 min,[52],3 µM·h
same,Cmax,[53],1300 nM
same,AUC,[54],11 µM·h
same,bioavailability,[55],70%
same,minimal effective dose,Mus musculus [56],0.1 mg/kg
same,"remaining at 10 min, 3 µM",[57],93%
